Reference: patent US20220280507A1, “USES OF 5-METHYLTETRAHYDROFOLATE AND ITS COMPOSITION” (Lianyungang Jinkang Hexin Pharmaceutical Co., Ltd., priority 2019, published 2022)
Where two headings read alike, the source gives them in different places.

Test system: mice after drinking
Conditions: n=10
Experimental: Experiment 8 Tail Suspension Test and Swimming Test in Mice after Drinking
Clean-grade male Kunming mice, weighing 18-22 g, were chosen. The test was carried out at 23° C. with a humidity of 50%. The mice ate and drank freely, adapting to the environment for 5 days before the test. Then they were divided into 5 groups: model group, normal group, high-dose 5-MTHF-Ca group, medium-dose 5-MTHF-Ca group and low-dose 5-MTHF-Ca group (16 mg·Kg−1, 8mg·Kg−1, 4mg·Kg−1),
10 mice in each group. The model group was given (by gavage) Erguotou (batch number: 201603092, specification: 2L, place of origin: Beijing Shunxin Agriculture Co., Ltd.) at 18 ml·Kg−1, and calcium folate (Lianyungang Jinkang Hexin Pharmaceutical Co., Ltd.). The high-dose, medium-dose and low-dose groups were also given the solution containing Erguotou and calcium folate. The mice were tested after 24 h. The tail suspension test is carried out by fixing the tail of a mouse so that it is suspended head down in a state of desperately struggling to escape but unable to escape. After a period of time, record the immobility time of the mouse in a desperate state in this environment to observe the therapeutic effect after administration. The head of the mouse suspended upside down was 10 cm from the bottom of the box, and two mice were suspended at a time, which were separated by a partition to avoid collision. The mice were suspended for 10 min, and the accumulated immobility time of the suspended mice was counted within the latter 5 min.

5-methyltetrahydrofolate calcium
Suspension immobility time (high dose 16 mg·Kg−1 with Erguotou 18 ml·Kg−1, tested after 24 h): 63.53 ± 2.98 S | Suspension immobility time (low dose 4 mg·Kg−1 with Erguotou 18 ml·Kg−1, tested after 24 h): 72.42 ± 4.52 S | Suspension immobility time (medium dose 8 mg·Kg−1 with Erguotou 18 ml·Kg−1, tested after 24 h): 68.32 ± 3.46 S
